Experimental data published in patent publication US7087648B1, “Methods for modulating macrophage proliferation using polyamine analogs” (The Regents of the University of California, priority 1997, dated 2006).

Key:
[1] = tested on: CD14^+/PCNA^+ peripheral blood macrophage; assay: In vitro CD14/PCNA staining (FACSCAN) of PBMC from AIDS dementia patients cultured five days with agent; assay type: cell-based, human; settings: for CD14^+/PCNA^+ / CD14^+/PCNA^− / total CD14: HIV dementia patient five; for CD14^+/PCNA^+: 0 drug: 74; for CD14^+/PCNA^−: 0 drug: 472; for total CD14: 0 drug: 546; for % Inhibition of CD14^+/PCNA antigen expression, mean: mean of HIV dementia patients
Procedure: We had previously separated peripheral blood monocytes on Ficoll. […] We then used Percoll gradient separation, which allows for denser cells to be captured. A two-step gradient was prepared in 15 mL conical tubes: bottom layer of 1.087 density Percoll, overlaid with 1.077 density. 1.5 mL whole heparinised blood was mixed with an equal volume of isotonic saline. This blood/saline was layered over the gradient and centrifuged. Cells from the 1.077 and 1.087 interfaces were collected, combined, and washed in 5 volumes of RPMI 1640. […] All further experiments were performed using 1.087 gradient.
Five×10^5 PBMC's isolated through a 1.087 g/cc Percoll/saline gradient were exposed to varied concentrations of agent after baseline CD14/PCNA staining was performed. The cells were cultured at 5×10^5 cells in RPM1-1640/10% fetal calf serum in a polypropylene tube (Falcon) at 37° C. for five days. After five days CD14/PCNA staining was performed on control and agent-treated cultures. FACSCAN analysis of PCNA-positive cells in control cultures was compared with agent-treated cultures and the percentage of control PCNA/CD14 cells was calculated. The results of such an experiment in which the effect of polyamine analog DEHOP (SunPharm; Florida) on proliferating macrophages (as detected by PCNA) from the blood of four patients with AIDS dementia are shown in FIG. 1A (with underlying data provided in Table 3). […] A comparison of the inhibitory effect of DEHOP and cyclosphosphamide, another anti-proliferative agent, was performed in vitro using the blood of one of these patients (“CB”).

brain cell aggregates = assay: In vitro cell killing of brain cell aggregates by macrophage supernatants treated or not with DEHOP; assay type: cell-based, human; settings: FIG. 2
Procedure: To collect a maximum number of monocytes (both heavy and light), we used a one-step Percoll protocol. 1.5 mL whole heparinised blood was mixed with an equal volume of isotonic phosphate-buffered solution and layered over 5 mL Percoll at 1.087. The cells were centrifuged, washed, and resuspended in RPMI 1640 supplemented with 10% fetal calf serum at […]. To separate non-adherent lymphocytes from adherent monocytes, culture dishes were washed with RPMI after overnight incubation. The adherent cells were re-fed with RPMI and cultured for 7 days to obtain supernatants. Supernatants were clarified by centrifugation at 90,000 g over 25% sucrose overnight. The supernatant was filtered through a 0.22 μm syringe filter and stored at −70° C.
Human fetal brain tissue from between 16 and 18 weeks' gestation was obtained from elective abortions for preparation of brain cell aggregates. These aggregates contain all the cells of the central nervous system including neurons, astrocytes, oligodendrocytes with accompanying myelin, and microglial cells. After 10 days in culture, and before experimentation, aggregates were tested for viability by trypan-blue exclusion. […]
Lactate dehydrogenase is released on cell lysis. […] The brain aggregate supernatant was reacted with yellow tetrazolium salt and absorbance was read at 490 nm. […]

AIDS related lymphoma = assay: Clinical response to DEHOP in chemotherapy resistant AIDS related lymphoma patients; assay type: in vivo, human; settings: for tumor relapse: after two cycles of DEHOP, no third cycle
Procedure: (§1) Four patients who had failed standard chemotherapy for treatment of their AIDS related lymphoma (therapy included at least CHOP chemotherapy up to six cycles). were evaluated for response to DEHOP administration in vivo. Patients had blood drawn pre administration of drug for evaluation of macrophage activation. This blood was also evaluated for response to DEHOP in vitro. […] Blood was obtained at 1 week after completion of the first and second cycles of therapy. The blood specimens were evaluated for macrophage proliferation (proliferating cell nuclear antigen, PCNA expression), and activation (percentage CD69 expression). Response to therapy was evaluated by direct observation of tumor (3 patients) and persistence or resolution of symptoms (1 patient with GI lymphoma).

CD14^+ cells = assay: In vivo response of blood CD14 cells (PCNA, CD69 expression) to DEHOP in AIDS lymphoma patients; set-up: species or system human; settings: FIG. 7
Procedure: as §1
Because of intercurrent medical problems the patients were not allowed to receive a third cycle of DEHOP and both patients ultimately relapsed, FL on day 47 and LT on day 54. All of the macrophage activation parameters increased in both patients prior to their clinical objective tumor relapse.

[2] = tested on: human brain tumor cell lines; settings: cited from earlier work

Compound: CCNCCCCNCCCCNCCCCNCC [DEHOP, 1,14-bis(ethylamino)-5,10-diazatetradecane]
- PCNA^+/CD14 cell survival ([1]; FIG. 6, averages of several (N) experiments): decrease
- % Inhibition of CD14^+/PCNA antigen expression ([1]; HIV dementia patient 1, DEHOP 2 um): 79%
- % Inhibition of CD14^+/PCNA antigen expression ([1]; HIV dementia patient 1, DEHOP 10 um): 95%
- % Inhibition of CD14^+/PCNA antigen expression ([1]; HIV dementia patient 1, DEHOP 50 um): 84%
- % Inhibition of CD14^+/PCNA antigen expression ([1]; HIV dementia patient 2, DEHOP 0.4 um): 94%
- % Inhibition of CD14^+/PCNA antigen expression ([1]; HIV dementia patient 2, DEHOP 2 um): 94%
- % Inhibition of CD14^+/PCNA antigen expression ([1]; HIV dementia patient 2, DEHOP 10 um): 97%
- % Inhibition of CD14^+/PCNA antigen expression ([1]; HIV dementia patient 3, DEHOP 0.4 um): 66%
- % Inhibition of CD14^+/PCNA antigen expression ([1]; HIV dementia patient 3, DEHOP 2 um): 62%
- % Inhibition of CD14^+/PCNA antigen expression ([1]; HIV dementia patient 3, DEHOP 10 um): 58%
- % Inhibition of CD14^+/PCNA antigen expression ([1]; HIV dementia patient 4, DEHOP 0.08 um): 19%
- % Inhibition of CD14^+/PCNA antigen expression ([1]; HIV dementia patient 4, DEHOP 0.4 um): 25%
- % Inhibition of CD14^+/PCNA antigen expression ([1]; HIV dementia patient 4, DEHOP 2 um): 75%
- CD14^+/PCNA^+ ([1]; 0.4 (um)): 25 #cells/10,000 PBMC
- CD14^+/PCNA^− ([1]; 0.4 (um)): 222 #cells/10,000 PBMC
- total CD14 ([1]; 0.4 (um)): 247 #cells/10,000 PBMC
- CD14^+/PCNA^+ ([1]; 2 (um)): 28 #cells/10,000 PBMC
- CD14^+/PCNA^− ([1]; 2 (um)): 182 #cells/10,000 PBMC
- total CD14 ([1]; 2 (um)): 210 #cells/10,000 PBMC
- CD14^+/PCNA^+ ([1]; 10 um): 31 #cells/10,000 PBMC
- CD14^+/PCNA^− ([1]; 10 um): 89 #cells/10,000 PBMC
- total CD14 ([1]; 10 um): 120 #cells/10,000 PBMC
- percentage of proliferating macrophages (as detected by PCNA) ([1]; blood of four patients with AIDS dementia, FIG. 1A): significantly reduced the percentage of proliferating macrophages
- inhibitory effect compared with cyclosphosphamide ([1]; blood of patient five, Table 1): superior in inhibition
- % Inhibition of CD14^+/PCNA antigen expression, mean ([1]; DEHOP 0.08 um): 19%
- % Inhibition of CD14^+/PCNA antigen expression, mean ([1]; DEHOP 0.4 um): 62%
- % Inhibition of CD14^+/PCNA antigen expression, mean ([1]; DEHOP 2 um): 78%
- % Inhibition of CD14^+/PCNA antigen expression, mean ([1]; DEHOP 10 um): 83%
- % Inhibition of CD14^+/PCNA antigen expression, mean ([1]; DEHOP 50 um): 84%
- inhibition and/or killing of blood PCNA^+/CD14^+ cells ([1]; summary of the data shown): potent inhibition and/or killing
- cell killing by macrophage supernatants (brain cell aggregates; non-dementia disease control (AIDS lymphoma), with or without DEHOP treatment): did not show significant cell killing
- cell killing by macrophage supernatants (brain cell aggregates; peripheral blood of an AIDS dementia patient, preparations treated with DEHOP): virtually disappeared
- Response to Therapy: objective measured tumor response after first week of Rx (AIDS related lymphoma; patient four, DEHOP sq for 5 days, 25 or 50 mg/m^2): >50% objective measured tumor
- tumor relapse (AIDS related lymphoma; patient four): 47 days
- Response to Therapy (AIDS related lymphoma; patient one, DEHOP sq for 5 days, 25 or 50 mg/m^2): None
- Response to Therapy (AIDS related lymphoma; patient three, DEHOP sq for 5 days, 25 or 50 mg/m^2): Clinical Response
- tumor relapse (AIDS related lymphoma; patient three): 54 days
- Response to Therapy (AIDS related lymphoma; patient two, DEHOP sq for 5 days, 25 or 50 mg/m^2): None
- clinical response (AIDS related lymphoma; patients, day 35 after initiation of study): objective and subjective responses
- PCNA/CD69 expression of CD14 cells (CD14^+ cells; after administration of drug): generally decreased
- expression of all macrophage activation parameters (CD14^+ cells; day 35 after initiation of study): low to background level
- growth, survival, and cell cycle progression [2]: directly affects growth, survival, and cell cycle progression
